Source: US20010000523A1, “Carboxylated polymers complexes” (priority 1999, published 2001)

Test system: eye
Assay: Primary eye irritation, protocol FHSLA 16 CFR 1500.42
Type: in vivo
Settings: products tested at 25% actives
Experimental: Eye irritation is a major concern in the formulation of personal care products, particularly when working with quats. Primary eye irritation was tested using the protocol outlined in FHSLA 16 CFR 1500.42. The products were tested at 25% actives.

SMILES: CCCCCCCCCCCCCCCCCC[N+](C)(C)C.[Cl-] [Stearyl trimethyl ammonium chloride]
- Description: Severely Irritating
- Score: 106.0

SMILES: CCCCCCCCCCCCCCCCCC[N+](C)(C)Cc1ccccc1.[Cl-] [Stearalkonium Chloride]
- Description: Severely Irritating
- Score: 116.5
